In patent publication US5585383A, “Process for crystallizing a 4-azasteroid 5alpha-reductase inhibitor” (Merck & Co., Inc., priority 1995, dated 1996):
Entries after “also recorded” stand apart in the source; their conditions may differ.

Test: Relative stability of crystalline polymorphs (DSC, x-ray powder diffraction)
Assay type: physicochemical
Settings: non-solvated crystalline forms of 4,7β-dimethyl-4-aza-5α-cholestan-3-one
Protocol: The crystallinity of each batch was determined primarily from Differential Scanning Calorimetry (DSC) employing a DuPont Model 910 Thermal Analyzer. However, any other reliable means may be employed to determine the crystallinity of a sample, such as x-ray powder diffraction, solid state NMR, or polarizing microscopy.
Generally, a DSC sample was prepared by weighing. 10 to 30 mg of material into a DSC cup and crimping the cup closed. Preferably, each DSC sample was run as soon as possible after preparation, most preferably within 15 minutes of preparation, because crystallinity increases with aging. Generally, samples were heated at a rate of 10° C./min from 10° C. to 100° C. under nitrogen. The DSC peaks were integrated and the measured heat of formation was divided by 46.6 J/g (the average heat of formation of samples confirmed by x-ray diffraction to contain no Form II) to calculate the percent crystallinity of the sample. The term percent crystallinity refers to the weight percent of 4,7β-dimethyl-4-aza-5α-cholestan-3-one sample weight in Form I.
X-ray diffraction was also employed to confirm DSC results. […] This method was not employed for quantitative analysis of the degree of crystallinity.

| Compound | polymorph stability |
| --- | --- |
| CC(C)CCC[C@@H](C)[C@H]1CC[C@H]2[C@@H]3[C@@H](C)C[C@H]4N(C)C(=O)CC[C@]4(C)[C@H]3CC[C@]12C [Form II, 4,7β-dimethyl-4-aza-5α-cholestan-3-one] | transforms to Form I with time and/or mechanical manipulation; also recorded: less energetically favored polymorph |
| CC(C)CCC[C@@H](C)[C@H]1CC[C@H]2[C@@H]3[C@@H](C)C[C@H]4N(C)C(=O)CC[C@]4(C)[C@H]3CC[C@]12C [Form I, 4,7β-dimethyl-4-aza-5α-cholestan-3-one] | more stable, energetically favored polymorph |
